Measured values published in US20060009425A1, “Oral formulations of paricalcitol” (priority 2004, published 2006).
Like-named read-outs stand apart in the source and are kept apart here.

Tests used:
[1] = Bioavailability of capsule vs intravenous formulation, end-stage renal disease on hemodialysis (Example 3); type: in vivo; details: human, plasma
Procedure: Methodology: This was a Phase I, open-label, randomized, single-dose, two-period, crossover, nonfasting study. Subjects were randomized into two sequence groups of Regimens A and B. The two nonfasting study regimens were:
The intravenous formulation contained 2-10 micrograms/milliliter of paricalcitol, 30% (v/v) propylene glycol, 20% (v/v) ethanol and 50% (v/v) water.
Both regimens were administered at the end of a regular hemodialysis session on Study Day 1, 30 minutes after a breakfast was served. […] Fourteen subjects participated in the study. […] A washout interval of at least 7 days separated the doses of the two study periods. […] Plasma concentrations of paricalcitol were determined using a validated liquid chromatography—tandem mass spectrometric assay method at Abbott Laboratories, Abbott Park, Ill. […] The lower limit of quantification of paricalcitol was 0.02 ng/mL using a 0.6 mL plasma sample.
Pharmacokinetics: The pharmacokinetic parameter values of paricalcitol were estimated using noncompartmental methods. […] The volume of distribution for intravenous administration (Vdβ) and apparent volume of distribution for oral administration (Vdβ/F) value were calculated by dividing the clearance by β. […]

[2] = Single and multiple dose pharmacokinetics, 4 μg QD vs 8 μg TIW, subjects in general good health (Example 5); type: in vivo, human; details: for AUC(0-inf) / Cmax / Tmax / half-life / AUC(0-t): human, plasma, oral; for half-life: harmonic mean ± pseudo-standard deviation
Procedure: Methodology: This Phase I, multiple-dose, open-label, randomized study was conducted according to an […], crossover design. Subjects were randomized into two sequence groups of equal size of Regimens A and B. Subjects received the following regimens: • Regimen A: One 4 μg paricalcitol soft elastic capsule on Study Day 1 and one 4 μg paricalcitol capsule QD for 11 doses on Study Days 3 through 13. • Regimen B: Two 4 μg paricalcitol soft elastic capsules three times a week (8 μg TIW) for 6 doses on Study Days 1, 3, 5, 8, 10, and 12.
The paricalcitol dose was administered at approximately 0700, 30 minutes after breakfast was served on the dosing days of each period. Each dose was administered orally with 240 mL of water. A washout interval of at least 7 days separated the dose of period 1 and dose of period 2.
Seven (7) mL blood samples (to yield at least 3 mL of plasma) were obtained by venipuncture for paricalcitol plasma concentration into appropriately labeled EDTA-containing collection tubes. The blood sampling was as shown below in Table 10.
For Regimen B, a blood sample was collected 48 hours after the Study Day 5 dose (Study Day 7) and immediately prior to dosing (0 hour) on Study Day 10.
Plasma concentrations of paricalcitol were determined using a validated liquid chromatography-tandem mass spectrometric assay method at Abbott Laboratories, Abbott Park, Ill. (a proprietary method of Abbott Laboratories). The lower limit of quantification (abbreviated as “LOQ”) of paricalcitol was 0.02 ng/mL using a 0.6 mL plasma sample.
Pharmacokinetics: The following pharmacokinetic parameter values were determined using standard non-compartmental methods: maximum observed plasma concentration (Cmax), time to Cmax(Tmax), terminal phase elimination rate constant (β), terminal elimination half-life (t1/2), area under the plasma concentration vs. time curve extrapolated to infinite time (AUC0-∞) following the first dose and area under the plasma concentration vs. time curve over the dose interval at steady state (AUC0-τ; also referred to as AUC0-48 or AUC0-24 as appropriate). Accumulation index (AI) and degree of fluctuation (DFL) were also evaluated at steady state.
Statistical Methods: An analysis of variance (ANOVA) was performed to compare single- and multiple-dose pharmacokinetics of paricalcitol. The model included effects for sequence, subject nested within sequence, day (i.e., first dose or last dose), and sequence by day interaction. The effect for subject was random, while all other effects were fixed. The analyzed variables include Tmax, β, and the logarithms of AUC and Cmax. The AUC value for the single dose was AUC0-∞, while the AUC for the multiple dose was AUC0-24. The trough concentrations were analyzed using the same ANOVA model described above to address the issue of steady state attainment for the QD regimen.
The logarithmic transformation was also used for AUC. The model had effects for sequence, subject nested within sequence, period and regimen. The effect for subject was random, while all other effects were fixed. […] Study Day 1 Tmax, β, dose-normalized Cmax and AUC0-∞ from Regimen A and Regimen B were analyzed using the same ANOVA model. […] This same model again was used to compare Regimen A and Regimen B with respect to AI values.

[3] = system: serum and urine pharmacodynamic markers; assay: Serum and urine pharmacodynamic markers, moderate to severe renal impairment (Example 4)
Procedure: Blood samples for paricalcitol assay were collected by venipuncture into 7 mL evacuated EDTA-containing collection tubes within 5 minutes prior to dosing (0 hour) and at 0.5, 1, 2, 3, 4, 6, 8, 12, 24, 36, and 48 hours after dosing on Study Days 1 and 8. Sufficient blood was collected to provide approximately 2.5 mL plasma from each sample. In addition, urine was collected for 48 hours following Study Day 1 dosing. Serum and urine pharmacodynamic markers, were measured at selected time points in the study. Also, a 24 hr urine amount of urine pharmacodynamic markers were measured following paricalcitol dose on Study Days 1 and 8.
Pharmacodynamic: Serum pharmacodynamic markers [serum calcium, calcium-phosphorus product (Ca×P), serum phosphorus, serum bone specific alkaline phosphatase (AP), serum osteocalcin, serum C-terminal telopeptide of collagen (CTx), serum tartarate resistant acid phosphatase-type 5b (TRAP-5b), intact (iPTH) and whole PTH] were measured from samples collected immediately prior to dosing on Study Days 1, 3, 5, and 8. One additional sample was collected 48 hours following the Study Day 8 dose (on the morning of Study Day 10). Urine pharmacodynamic markers [calcium, creatinine and deoxy-pyridinoline (DPD)] were measured from samples collected immediately prior to dosing on Study Days 1 and 8, and during the intervals 0 to 4, 4 to 8, 8 to 12, and 12 to 24 hours after dosing on Study Days 1 and 8. In addition, these markers were measured using the first morning void sample on Study Days 3, 5, and 10.
Pharmacodynamic: Two-sample t-tests were performed to compare baseline pharmacodynamic marker values between the two renal impairment groups. For improving the normality of the distribution of the baseline values, natural logarithm transformations were made to all the pharmacodynamic markers except for the urine calcium and urine creatinine. The relationship between the % change from Study Day 1 to Study Day 10 and the Study Day 1 paricalcitol AUC0-∞ was investigated using linear regression. The Study Day 1 AUC0-∞ and the corresponding baseline value were independent variables. A one-sample t-test was performed for each group on the change from Study Day 1 to Study Day 8 in 24-hour amount of urine calcium and creatinine.

[4] = Regimen A 4 μg QD, Study Day 12
[5] = Regimen A 4 μg QD, Study Day 13
[6] = Regimen B 8 μg TIW, Study Day 1
[7] = Regimen B 8 μg TIW, Study Day 12 and 13
[8] = 4 ug, Regimen A 4 μg QD, Study Day 1
[9] = 4 ug, Regimen A 4 μg QD, Study Day 12
[10] = 4 ug, Regimen A 4 μg QD, Study Day 13
[11] = 8 ug, Regimen B 8 μg TIW, Study Day 1
[12] = 8 ug, Regimen B 8 μg TIW, Study Day 12 and 13
[13] = moderate and severe renal impairment groups, supra-pharmacologic fixed doses, 1-week study
[14] = moderate renal impairment, Study Day 1
[15] = moderate renal impairment, Study Day 8
[16] = severe renal impairment, Study Day 1
[17] = severe renal impairment, Study Day 8

C[C@H](/C=C/[C@H](C)C(C)(C)O)[C@H]1CC[C@H]2/C(=C/C=C3C[C@@H](O)C[C@H](O)C3)CCC[C@]12C [Paricalcitol, 19-nor-1α,3β,25-trihydroxy-9,10-secoergosta-5(Z); 7(E),22(E)-triene]
half-life ([1]; 0.24 ug/kg, 0.24 μg/kg single dose, hemodialysis, harmonic mean ± pseudo-standard deviation): ~14 h | bioavailability ([1]; 0.24 μg/kg, single oral dose, nonfasting, end-stage renal disease on hemodialysis, read-out: estimated absolute bioavailability): 78.8% | steady state reached by ([2]; 4 μg QD or 8 μg TIW): ≤ 7 Study Day | CL/F ([2]; Regimen A 4 μg QD, Study Day 1): 3.95 ± 1.19^Φ L/h | Vdβ/F ([2]; Regimen A 4 μg QD, Study Day 1): 38.9 ± 18.7^Φ L | AI [2, 4]: 1.759 ± 1.829 | CL/F [2, 4]: 4.33 ± 2.08 L/h | Cmin [2, 4]: 0.005 ± 0.010 ng/mL | DFL [2, 4]: 2.584 ± 0.889 | Vdβ/F [2, 4]: 44.9 ± 23.0^ε L | AI [2, 5]: 1.483 ± 1.442 | AUC/Dose (AUC0-24/Dose) [2, 5]: 0.226 ± 0.049 ng·h/mL/µg | CL/F [2, 5]: 4.65 ± 1.16 L/h | Cmin [2, 5]: 0.001 ± 0.005 ng/mL | DFL [2, 5]: 2.761 ± 0.761 | Vdβ/F [2, 5]: 43.7 ± 17.9^ε L | CL/F [2, 6]: 3.65 ± 1.61 L/h | Vdβ/F [2, 6]: 41.0 ± 12.7 L | AI [2, 7]: 1.000 ± 0.312 | CL/F [2, 7]: 3.79 ± 1.07 L/h | Cmin [2, 7]: 0.000 ± 0.000 ng/mL | DFL [2, 7]: 4.637 ± 1.397 | Vdβ/F [2, 7]: 42.1 ± 28.7^δ L | AUC(0-inf) [2, 8]: 1.11 ± 0.342 ng·h/mL | Cmax [2, 8]: 0.1 ± 0.033 ng/mL | Tmax [2, 8]: 4.8 ± 2.8 h | half-life [2, 8]: 6.2 ± 2.1 h | AUC(0-t) ([2]; 4 ug, Regimen A 4 μg QD, Study Day 1, read-out: AUC0-t): 0.701 ± 0.339 ng·h/mL | Cmax [2, 9]: 0.112 ± 0.031 ng/mL | Tmax [2, 9]: 4.4 ± 2.6 h | half-life [2, 9]: 6.8 ± 3.1 h | AUC(0-t) ([2]; 4 ug, Regimen A 4 μg QD, Study Day 12, read-out: AUC0-τ (AUC0-24)): 1.07 ± 0.359 ng·h/mL | Cmax [2, 10]: 0.105 ± 0.035 ng/mL | Tmax [2, 10]: 4.5 ± 1.6 h | half-life [2, 10]: 5.8 ± 2.5 h | AUC(0-t) ([2]; 4 ug, Regimen A 4 μg QD, Study Day 13, read-out: AUC0-τ (AUC0-24)): 0.904 ± 0.196 ng·h/mL | AUC(0-inf) [2, 11]: 2.55 ± 1.08 ng·h/mL | Cmax [2, 11]: 0.2 ± 0.062 ng/mL | Tmax [2, 11]: 4.4 ± 1.4 h | half-life [2, 11]: 7.3 ± 3.2 h | AUC(0-t) ([2]; 8 ug, Regimen B 8 μg TIW, Study Day 1, read-out: AUC0-t): 2.05 ± 0.881 ng·h/mL | Cmax [2, 12]: 0.217 ± 0.077 ng/mL | Tmax [2, 12]: 4.3 ± 2.6 h | half-life [2, 12]: 6.8 ± 2.2 h | AUC(0-t) ([2]; 8 ug, Regimen B 8 μg TIW, Study Day 12 and 13, read-out: AUC0-τ (AUC0-48)): 2.26 ± 0.566 ng·h/mL | dose proportionality of pharmacokinetics ([2]; single dose and steady state over the studied dose range): dose proportional | PTH levels [3, 13]: significant decrease | calcium, phosphorus, Ca×P levels [3, 13]: increases | Ca/Creatinine, urine over 24 hours after dose [3, 14]: 0.045 ± 0.051 | Calcium, total amount excreted in urine over 24 hours after dose [3, 14]: 49.39 ± 56.85 mg | Creatinine, total amount excreted in urine over 24 hours after dose [3, 14]: 1326.7 ± 566.1 mg | DPD, total amount excreted in urine over 24 hours after dose [3, 14]: 52.03 ± 18.96 nmol | Ca/Creatinine, urine over 24 hours after dose [3, 15]: 0.074 ± 0.078 | Calcium, total amount excreted in urine over 24 hours after dose [3, 15]: 79.24 ± 63.27 mg | Creatinine, total amount excreted in urine over 24 hours after dose [3, 15]: 1324.4 ± 402.0 mg | DPD, total amount excreted in urine over 24 hours after dose [3, 15]: 58.60 ± 16.45 nmol | 24-hour urinary excretion of calcium ([3]; repeated dosing): does not affect | Ca/Creatinine, urine over 24 hours after dose [3, 16]: 0.028 ± 0.019 | Calcium, total amount excreted in urine over 24 hours after dose [3, 16]: 29.18 ± 20.97 mg | Creatinine, total amount excreted in urine over 24 hours after dose [3, 16]: 1088.3 ± 278.6 mg | DPD, total amount excreted in urine over 24 hours after dose [3, 16]: 48.34 ± 21.04 nmol | Calcium, total amount excreted in urine over 24 hours after dose [3, 17]: 50.92 ± 41.18 mg | DPD, total amount excreted in urine over 24 hours after dose [3, 17]: 47.74 ± 20.47 nmol
